One data set has as its system HL-60 cells. The data set is described as follows: HL-60 cell differentiation induction, NBT reducing activity, DMSO as solvent (Example 21). It counts as cell-based, human. The source says: In a manner similar to that in Example 20, the in vitro activity of the glutathione derivatives of Examples 4, 5, and 8, and Comparative Example 3 were compared.
(1) The differences from Example 20 were: First, since the glutathione derivatives of Examples and Comparative Examples used dimethyl sulfoxide (DMSO) as the solvent because of the solubility of the compounds, the system contained 0.1-0.3 (v/v)% DMSO instead of ethanol. […] This caused slight differences in the sensitivity in the test results of the glutathione derivative of Example 4. Furthermore, in Example 21, the differentiation induction on HL-60 cells into granulocytic cells in the coexistence of 9-cis-RA was only evaluated.

Another data set concerns rabbit liver esterase. As to the kind of experiment: Decomposition of glutathione derivatives by rabbit liver esterase (physiological stability). As to conditions: BSA/D-PBS pH 7.4, 196-244 μg/ml. The data set is classed as in vitro ADME. On the procedure:
(1) Bovine serum albumin (hereinafter referred to as BSA), Dulbecco's phosphate buffered saline (hereinafter referred to as D-PBS), swine liver esterase, and rabbit liver esterase were purchased from Sigma, 6-week old male SD rats were purchased from Nippon SLC, and 12-week old or older male Japanese white rabbits were purchased from Ichikawaya. On the day of the incubation experiment described below, blood was drawn from the animals in the presence of heparin, and plasma was separated therefrom for use. Human plasma was obtained from normal healthy males after obtaining their consent.
(2) The glutathione derivatives described in the Examples and Comparative Examples of the present invention were incubated for a fixed time in an enzyme solution having the following composition. Acetonitrile was added to the reaction mixture to inactivate the enzyme thereby to stop the reaction. The concentration of the glutathione derivatives in the deproteinized supernatant was measured by HPLC. For each time point of the esterase enzyme experiment, the mean values from two measurement or more were determined, and for the rats and rabbits the mean values of plasma samples from three individuals were determined. For some of the experiment data, changes with time of percentages relative to initial concentration of the glutathione derivative are shown in FIGS. 2 to 4.
Swine liver esterase and rabbit liver esterase experiment
30 mg-BSA/ml-D-PBS (pH 7.4): 36 to 45 parts
Swine or rabbit liver esterase/D-PBS: 4-5 parts
10 mg-glutathione derivative/ml-ethanol: one part (the final concentration in the reaction mixture is 196-244 μg/ml)

Data set [1] can be described thus: Pharmacokinetics after intravenous administration to rabbits, 2-compartment model (Example 25). It counts as in vivo, rabbit. As to conditions: iv auricular vein 2 ml/kg, fat emulsion (Comparative Ex. 1: HPCD/glucose solution). An excerpt: For the glutathione derivative of the present invention having a long-chain ester having 12 carbons or more and the glutathione derivatives of the conventional technology of Comparative Examples 1 and 2, kinetics in the blood were compared in rabbits that are a species having allow esterase activity in the blood.
(1) Male Japanese white rabbits, 12-week old or older, were purchased from Ichikawaya, and those rabbits that became 15-week old or older and whose body weight reached about 3 kg were used for the experiment. During the period up to the experiment, the animals were allowed free access to the animal feed and drinking water and were kept at a temperature of 24±2° C. and a humidity of 55±5%.
(2) The glutathione derivative having a long-chain ester of 12 carbons or more and the glutathione derivative of Comparative Example 2 were prepared at 20-200 mg/ml in a mixture of ethanol or ethanol:benzyl alcohol, which was mixed with the fat emulsion just prior to use, and was filtered with a 1.2 μm filter to obtain a liquid for intravenous administration. On the other hand, the glutathione derivative of Comparative Example 1 was dissolved in an aqueous solution of 6%-hydroxypropyl-β-cyclodextrin/5%-glucose at 15 mg/ml to obtain an administration liquid.
(3) The administration liquid of the glutathione derivative obtained in (2) at a dose of 2 ml/kg was rapidly infused into the left auricular vein of the rabbits under no anesthesia and under restraint at a rate of 1 ml/min. Each glutathione derivative was given to three or more rabbits. At 5, 10, 15, 30, 60, 120, and 240 minutes after the completion of the administration, 1 ml of the blood was drawn from the right auricular vein in the presence of heparin, which was immediately cooled on ice. Plasma was obtained by centrifuging the blood, 1-2 volume parts of acetonitrile was added to deproteinize the supernatant, which was filtered by a 0.5 μm filter. The supernatant of the filtrate was quantitated by HPLC.

In data set [2] the test system is human leukemia cell HL-60. The data set is described as follows: HL-60 cell differentiation induction, NBT reducing activity (Example 20). The data set is classed as cell-based. Conditions: 4 days. On the procedure: Using the differentiation induction effect on the granulocytes or monocytes/macrophages obtained by culturing the human leukemia cell HL-60 in the presence of 9-cys-retinoic acid (9-cis-RA) or activated vitamin D3 (1α, 25(OH)2D3), and in the coexistence of the glutathione derivatives of Examples and the Comparative Examples of the present invention, the growth-promotion activity was tested.
(1) HL-60 cells used were purchased from the cell bank (Japanese Cancer Research Resource Bank, Cell No. JCRBOO85). In accordance with a standard method, the lyophilized cell stocks that were thawed before the start of the experiment and subcultured were used.
Subculturing was carried out by centrifuging (1500 rpm, 5 minutes) the cells in suspension culture and recovering and by diluting it in a fresh culture liquid at a concentration of about 1/100 (1 to 2×10^4 cells/ml). As the culture liquid, an RPMI 1640 medium containing 10% fetal bovine serum was used.
(2) The cells subcultured in (1) were recovered by centrifugation (1500 rpm, 5 minutes), and were dispersed in the culture liquid at 2×10^4 cells/ml, which were plated on a 24-well culture plate at 1 ml/well. To this system were added the glutathione derivatives of Example 4, Example 11, Comparative Example 1 and Comparative Example 2 and a differentiation induction substance (9-cis-RA or 1α, 25(OH)2D3). Thus, 1 μl per well each of an ethanol solution of the differentiation induction substances 9-cis-RA and 1α, 25(OH)2D3 were added at 5×10^−6 M and 2×10^−6 M, respectively. Then, 1 μl per well each of ethanol solutions of the glutathione derivatives at 1×10^−4 M to 1×10^−2 M was added. As the solvent treatment for the control, 1 μl of ethanol per well was added in stead of the glutathione derivative, and as the single treatment of glutathione derivatives, 1 μl of ethanol per well was added in stead of the differentiation induction substance. After culturing at 37° C. and 5% CO2 for 4 days, the cells were recovered by centrifugation (1500 rpm, 5 minutes).
(3) The measurement of a nitroblue tetrazolium (NBT) reducing activity which is often used for the evaluation of differentiation induction effects on monocytes/macrophages or granulocytic cells was carried out according to the following procedure. Thus, the cells recovered by centrifugation in (2) were suspended in a fresh culture medium, and then NBT was added thereto to […] and 12-O-tetradecanoyl phorbol-13-acetate to 100 nM. After incubating at 37° C. for 25 minutes, cytospin samples were prepared. After air drying, the cells were subjected to Kernechtrot stain, and 500 cells per sample were examined under alight microscope to determine the ratio of the NBT reduction activity-positive cells.
(4) The result of the experiment in which glutathione derivatives at 10^−7 to 10^−5 M were treated together with a differentiation induction substances is shown in Table 4. For a single treatment of each glutathione derivative up to 10^−5 M, no increases in the NBT reducing activity was observed. In a combined treatment of a glutathione derivative and a differentiation induction substance, an enhanced ratio of the NBT reduction activity-positive cells relative to the single treatment with a differentiation induction substance was observed depending on the concentration of the glutathione derivative. There were no major differences observed in the strength of effects between the glutathione derivatives of Examples 4 and 11 and Comparative Examples 1, and 2.

Where [3] appears, read: compound 3 × 10^−6 M in DMSO, Solvent control (EtOH - 0.1%).
[4] abbreviates: compound 3 × 10^−6 M in DMSO, with 9-cis-RA (5 × 10^−9 M).
Where [5] appears, read: compound 3 × 10^−7 M in DMSO, Solvent control (EtOH - 0.1%).
The mark [6] stands for this setting: compound 3 × 10^−7 M in DMSO, with 9-cis-RA (5 × 10^−9 M).
Setting [7] is: compound 3 × 10^−8 M in DMSO, Solvent control (EtOH - 0.1%).
Where [8] appears, read: compound 3 × 10^−8 M in DMSO, with 9-cis-RA (5 × 10^−9 M).
[9] abbreviates: compound 10^−6 M in DMSO, Solvent control (EtOH - 0.1%).
Setting [10] is: compound 10^−6 M in DMSO, with 9-cis-RA (5 × 10^−9 M).
Setting [11] is: compound 10^−7 M in DMSO, Solvent control (EtOH - 0.1%).
[12] abbreviates: compound 10^−7 M in DMSO, with 9-cis-RA (5 × 10^−9 M).
The mark [13] stands for this setting: compound 10^−8 M in DMSO, Solvent control (EtOH - 0.1%).
The mark [14] stands for this setting: compound 10^−8 M in DMSO, with 9-cis-RA (5 × 10^−9 M).

Where a name gives a salt, the structure may show the parent alone. Starred links: 1 amine or outer side, 2 acyl side, 3 side chain; linkers in the order of their positions; H or OH if unused. Non-standard residues stand in square brackets, D forms with d. Residues, ends and D or L forms follow the SMILES beside them. *: point of attachment. γGlu = O=C(O)[C@H](CCC(=O)[*:2])N[*:1]; dPhg = N[C@@H](C(=O)O)c1ccccc1; Bn = c1ccc(C*)cc1

As to `N[C@@H](CCC(=O)N[C@@H](CSCc1ccccc1)C(=O)N[C@@H](C(=O)O)c1ccccc1)C(=O)O` [Comparative Example 3, Glu(Cys(Bzl)-D-Phg-OH)-OH Hydrochloride, reference compound] (γGlu-Cys(Bn)-[dPhg]-OH), the “Ratio of NBT reduction activity-positive cells” value with HL-60 cells (setting [3]) is listed as 0.6%; in the data set on HL-60 cells (setting [4]) it was 17.1%; in the data set with HL-60 cells (setting [5]), 0.6%; with HL-60 cells (setting [6]), 3.8%; in the data set on HL-60 cells (setting [7]), 0.5%; in the data set with HL-60 cells (setting [8]), 2.8%. For the same molecule, the “Ratio of NBT reduction activity-positive cells” value is listed as 0.3% in the data set on HL-60 cells (setting [9]); 6.1% in the data set with HL-60 cells (setting [10]); 0.3% in the data set on HL-60 cells (setting [11]); 3.5% in the data set on HL-60 cells (setting [12]); 0.7% in the data set on HL-60 cells (setting [13]); 3.1% in the data set on HL-60 cells (setting [14]).
In the case of `CCCCCCCCCCCCCCCCCCCCCCOC(=O)[C@@H](N)CCC(=O)N[C@@H](CSCc1ccccc1)C(=O)N[C@@H](C(=O)OCC)c1ccccc1.Cl` [Example 2, Glu(Cys(Bzl)-D-Phg-OEt)-O(Docosyl)hydrochloride], the “Decomposition rate constant by rabbit liver esterase” value in the data set with rabbit liver esterase is 0.523 10^−4/unit/min. Also, in data set [1], the “Clearance per body weight” value was determined as 0.05 L/kg/h and the “Distribution volume per body weight of the central compartment” value turned out to be 0.07 L/kg.
Consider `CCCCCCCCCCCCCCCCOC(=O)[C@H](CCC(=O)N[C@@H](CSCc1ccccc1)C(=O)N[C@@H](C(=O)OCC)c1ccccc1)NC(C)=O` [Example 5, Ac-Glu(Cys(Bzl)-D-Phg-OEt)-O(Hexadecyl)], for which the “Ratio of NBT reduction activity-positive cells” value was determined as 0.2% with HL-60 cells (setting [3]); 11.2% in the data set on HL-60 cells (setting [4]); 0.7% with HL-60 cells (setting [5]); 4.3% with HL-60 cells (setting [6]); 0.7% in the data set on HL-60 cells (setting [7]); 2.1% with HL-60 cells (setting [8]). Moreover, the “Ratio of NBT reduction activity-positive cells” value in the data set on HL-60 cells (setting [9]) was found to be 0.3%; in the data set on HL-60 cells (setting [10]), 6.5%; in the data set on HL-60 cells (setting [11]) it was 0.9%; with HL-60 cells (setting [12]), 3.2%; in the data set on HL-60 cells (setting [13]), 0.3%; in the data set on HL-60 cells (setting [14]), 2.5%.
With `CCCCCCCCCCCCCCCCOC(=O)[C@H](NC(=O)[C@H](CSCc1ccccc1)NC(=O)CC[C@H](N)C(=O)OCC)c1ccccc1.Cl` [Example 8, Glu(Cys(Bzl)-D-Phg-O(Hexadecyl))-OEt Hydrochloride], the “Ratio of NBT reduction activity-positive cells” value with HL-60 cells (setting [3]) worked out at 0.7%; with HL-60 cells (setting [4]) it was 16.9%; in the data set on HL-60 cells (setting [5]), 0.9%; with HL-60 cells (setting [6]) it was 4.7%; in the data set with HL-60 cells (setting [7]), 0.4%; in the data set with HL-60 cells (setting [8]) it was 3.2%. Also, the “Ratio of NBT reduction activity-positive cells” value is reported as 0.8% in the data set with HL-60 cells (setting [9]); 8.8% in the data set on HL-60 cells (setting [10]); 0.8% with HL-60 cells (setting [11]); 4.2% in the data set on HL-60 cells (setting [12]); 0.5% in the data set with HL-60 cells (setting [13]); 2.9% in the data set with HL-60 cells (setting [14]).
With `CCCCCCCCCCCCCCCCOC(=O)[C@H](NC(=O)[C@H](CSCc1ccccc1)NC(=O)CC[C@H](N)C(=O)O)c1ccccc1.Cl` [Example 11, Glu(Cys(Bzl)-D-Phg-O(Hexadecyl))Hydrochloride], the “Ratio of NBT reduction activity-positive cells” value came out at 0.8% in data set [2] (compound 10^−5 M, Solvent control (EtOH), no differentiation induction substance); 13.8% in data set [2] (compound 10^−5 M, with 1α,25(OH)2D3 (2 × 10^−9 M)); 19.8% in data set [2] (compound 10^−5 M, with 9-cis-RA (5 × 10^−9 M)); 0.2% in data set [2] (compound 10^−6 M, Solvent control (EtOH), no differentiation induction substance); 4.8% in data set [2] (compound 10^−6 M, with 1α,25(OH)2D3 (2 × 10^−9 M)); 11.2% in data set [2] (compound 10^−6 M, with 9-cis-RA (5 × 10^−9 M)). Besides, the “Ratio of NBT reduction activity-positive cells” value in data set [2] (compound 10^−7 M, Solvent control (EtOH), no differentiation induction substance) came to 0.6%; in data set [2] (compound 10^−7 M, with 1α,25(OH)2D3 (2 × 10^−9 M)) it was 5.1%; in data set [2] (compound 10^−7 M, with 9-cis-RA (5 × 10^−9 M)) it was 8.8%.
